Converted amounts (≈) assume the structure as drawn. The source made the active and inactive calls. The rule behind the calls is not given here.
How the values were obtained:
[1] = Inhibition of beta-adrenergic receptor in isoproterenol-stimulated guinea pig atrial muscle; assay type: tissue-based, Cavia porcellus, Cardiac atrium
[2] = Myocardial depressant activity in guinea pig atrial muscle assessed as maximal non-depressant dose by measuring contractility; assay type: ADME, tissue-based, Cavia porcellus, Muscle tissue
[3] = Retention time of the compound; assay type: physicochemical
[4] = target: Adrenergic receptor beta (Rattus norvegicus, UniProt P18090+P10608+P26255); assay: Inhibition of beta-adrenergic receptor in rat portal vein
[5] = Myocardial depressant activity in guinea pig atrial muscle assessed as decrease in contractility at 0.31 x 10^-3 to 0.31 mg/ml; assay type: ADME, tissue-based, Cavia porcellus, Muscle tissue
[6] = Myocardial depressant activity in guinea pig atrial muscle assessed as decrease in contractility at 1.0 mg/ml; assay type: ADME, tissue-based, Cavia porcellus, Muscle tissue
[7] = organism: Felis catus; assay: Inhibition of beta-adrenergic receptor in cat papillary muscle; assay type: tissue-based
[8] = Myocardial depressant activity in cat papillary muscle assessed as decrease in contractile force at >0.31 mg/ml; assay type: ADME, tissue-based, Felis catus, Muscle tissue

| IC50 [1] | Activity [2] [µg/mL] | Compound | also measured |
| --- | --- | --- | --- |
| 0.07 µg/mL (≈ 0.168 µM) | > 1000 | COc1ccc(CCNCC(O)COc2cccc3c2C[C@H](O)[C@H](O)C3)cc1OC (stereo not given in full) | – |
| 0.001 µg/mL (≈ 0.00341 µM) | 10 | CC(C)(C)NCC(O)COc1cccc2c1CCC(O)C2 (stereo not given) | – |
| 3.8 µg/mL | > 1000 | Cl.NCC(O)COc1cccc2c1C[C@H](O)[C@H](O)C2 (stereo not given in full) | – |
| 0.024 µg/mL (≈ 0.0598 µM) | 3.1 | COc1ccc(CCNCC(O)COc2ccc(O)c3c2CCCC3)cc1OC (stereo not given) | – |
| 0.006 µg/mL (≈ 0.0216 µM) | 3.1 | CC(C)NCC(O)COc1cccc2c1CCC(=O)C2 (stereo not given) | – |
| 0.11 µg/mL (≈ 0.372 µM) | 100 | CC(C)NCC(O)COc1cc(O)c(O)c2c1CCCC2 (stereo not given) | – |
| 31 µg/mL (≈ 100 µM) | > 1000 | CCN(CC)CC(O)COc1cccc2c1C[C@H](O)[C@H](O)C2 (stereo not given in full) | – |
| 0.15 µg/mL | 31 | Cl.NCC(O)COc1ccc(O)c2c1CCCC2 (stereo not given) | – |
| 0.1 µg/mL (≈ 0.339 µM) | > 1000 | CC(C)NCC(O)COc1cccc2c1C[C@@H](O)[C@@H](O)C2 (relative stereo) | – |
| 0.01 µg/mL (≈ 0.038 µM) | 1 | CC(C)NCC(O)COc1cccc2c1CCCC2 (stereo not given) | – |
| – | 0.31 | CC(C)NCC(O)COc1cccc2ccccc12 (stereo not given) [PROPRANOLOL] | – |
| 6 µg/mL (≈ 19.4 µM) | 100 | CC(C)(C)NCC(O)COc1ccc2c(c1)C[C@@H](O)[C@H](O)C2 (relative stereo) | – |
| 10 µg/mL (≈ 32.3 µM) | > 1000 | CC(C)(C)NCC(O)COc1ccc2c(c1)C[C@@H](O)[C@@H](O)C2 (relative stereo) | – |
| 0.3 µg/mL (≈ 0.889 µM) | 100 | CC(C)(C)NCC(O)COc1ccc(O)c2c1C[C@@H]1OCO[C@@H]1C2 (stereo not given in full) | – |
| Not Active | > 310 | OC(COc1cccc2c1C[C@H](O)[C@H](O)C2)CN1CCN(c2ccccn2)CC1 (stereo not given in full) | – |
| Not Active | > 1000 | CN(CC(O)COc1cccc2c1C[C@H](O)[C@H](O)C2)C(C)(C)C (stereo not given in full) | – |
| – | – | Oc1cccc2c1CCC=C2 | Retention_time [3]: 37 min |
| 0.01 µg/mL (≈ 0.0341 µM) | 10 | CC(C)(C)NCC(O)COc1ccc(O)c2c1CCCC2 (stereo not given) | – |
| 0.04 µg/mL (≈ 0.124 µM) | 3.1 | CC(C)(C)NCC(O)COc1cccc2c1C[C@@H]1OCO[C@@H]1C2 (relative stereo) | – |
| 0.002 µg/mL | 31 | CC(C)NCC(O)COc1cccc2c1CCC(O)C2.O=C(O)C(=O)O (stereo not given) | – |
| – | 0.3 | CC(C)(C)NCC(O)COc1cccc2c1CC=CC2 (stereo not given) | IC50 [4]: 0.0013 µg/mL (≈ 0.00472 µM) |
| 0.03 µg/mL (≈ 0.097 µM) | > 1000 | CC(C)(C)NCC(O)COc1cccc2c1C[C@@H](O)[C@@H](O)C2 (relative stereo) | – |
| 0.05 µg/mL (≈ 0.169 µM) | > 1000 | CC(C)NCC(O)COc1cccc2c1C[C@H](O)[C@@H](O)C2 (relative stereo) | – |
| – | 100 | CO[C@H]1Cc2cccc(OCC(O)CNC(C)(C)C)c2C[C@H]1OC.Cl (relative stereo) | IC50 [4]: 0.051 µg/mL |
| 0.05 µg/mL | 31 | CO[C@@H]1c2cccc(OCC(O)CNC(C)C)c2CC[C@H]1O.O=C(O)C(=O)O (relative stereo) | – |
| 0.086 µg/mL | – | CC(C)(C)NCC(O)COc1ccc(O)c2c1C[C@@H](O)[C@@H](O)C2.Cl (relative stereo) | inhibition (INH) [5]: 10%; Activity [6]: Non-toxic |
| 0.005 µg/mL (≈ 0.0179 µM) | 3.1 | CC(C)NCC(O)COc1cccc2c1CC(O)CC2 (stereo not given) | – |

| IC50 [1] | Activity [2] [µg/mL] | Compound | also measured |
| --- | --- | --- | --- |
| – | – | COc1ccccc1N1CCN(CC(O)COc2cccc3c2C[C@H](O)[C@H](O)C3)CC1 (stereo not given in full) | IC50 [4]: 0.46 µg/mL (≈ 1.07 µM) |
| – | – | Oc1cccc2c1CCCC2 | Retention_time [3]: 37.5 min |
| 0.006 µg/mL (≈ 0.0206 µM) | 1 | CC(C)(C)NCC(O)COc1cccc2c1CCCC2=O (stereo not given) [BUNOLOL] | – |
| 0.0025 µg/mL (≈ 0.00852 µM) | 1 | CC(C)(C)NCC(O)COc1cccc2c1CC(O)CC2 (stereo not given) | – |
| – | – | Oc1cccc2c1C=CCC2 | Retention_time [3]: 35 min |
| – | 3.1 | C=CCc1ccc(OCCNCC(O)COc2cccc3c2C[C@H](O)[C@H](O)C3)c(OC)c1 (stereo not given in full) | IC50 [4]: 1.5 µg/mL (≈ 3.38 µM) |
| 0.004 µg/mL (≈ 0.0143 µM) | 10 | CC(C)NCC(O)COc1ccc(O)c2c1CCCC2 (stereo not given) | – |
| 0.31 µg/mL (≈ 0.743 µM) | 31 | CCOc1ccccc1OCCNCC(O)COc1cccc2c1C[C@H](O)[C@H](O)C2 (stereo not given in full) | – |
| – | 1 | CC(C)(C)CC(C)(C)NCC(O)COc1cccc2c1C[C@H](O)[C@H](O)C2 (stereo not given in full) | IC50 [4]: 0.78 µg/mL (≈ 2.13 µM) |
| 0.8 µg/mL | 10 | CO[C@@H]1c2c(cccc2OCC(O)CNC(C)C)CC[C@@H]1O.O=C(O)C(=O)O (relative stereo) | – |
| – | > 1000 | CCN(CC(O)COc1cccc2c1C[C@H](O)[C@H](O)C2)C(C)(C)C (stereo not given in full) | – |
| 1 µg/mL (≈ 2.91 µM) | 100 | OC(CNCc1ccccc1)COc1cccc2c1C[C@H](O)[C@H](O)C2 (stereo not given in full) | – |
| 0.1 µg/mL (≈ 0.323 µM) | 10 | CC(C)(C)NCC(O)COc1cc(O)c(O)c2c1CCCC2 (stereo not given) | – |
| 0.015 µg/mL (≈ 0.0485 µM) | > 1000 | CC(C)(C)NCC(O)COc1cccc2c1C[C@H](O)[C@@H](O)C2 (relative stereo) | – |
| 0.63 µg/mL | 1000 | CC(C)(C)[N+](C)(C)CC(O)COc1cccc2c1C[C@H](O)[C@H](O)C2.[I-] (stereo not given in full) | – |
| 0.001 µg/mL (≈ 0.00383 µM) | 1 | CC(C)NCC(O)COc1cccc2c1CC=CC2 (stereo not given) | – |
| 5.9 µg/mL | 3.1 | COc1ccc(CCNCC(O)COc2cc(O)c(O)c3c2CCCC3)cc1OC.Cl (stereo not given) | – |
| 0.012 µg/mL (≈ 0.0433 µM) | 31 | CC(C)NCC(O)COc1cccc2c1CC1OC1C2 (stereo not given) | – |
| 16 µg/mL (≈ 49.5 µM) | 31 | CC(O)(CNC(C)(C)C)COc1cccc2c1C[C@H](O)[C@H](O)C2 (stereo not given in full) | – |
| 0.02 µg/mL (≈ 0.0646 µM) | 310 | CC(C)(C)NCC(O)COc1cccc2c1CC[C@@H](O)[C@@H]2O (relative stereo) | – |
| – | 31 | CC(C)(C)N(CCNCC(O)COc1cccc2c1C[C@H](O)[C@H](O)C2)Cc1ccccc1 (stereo not given in full) | IC50 [4]: > 8 µg/mL |
| 0.5 µg/mL (≈ 1.4 µM) | 100 | OC(CNCCc1ccccc1)COc1cccc2c1C[C@H](O)[C@H](O)C2 (stereo not given in full) | – |
| – | – | CCCCNCC(O)COc1cccc2c1C[C@H](O)[C@H](O)C2 (stereo not given in full) | IC50 [4]: 0.44 µg/mL (≈ 1.42 µM) |
| – | – | CC(C)(C)NCC(O)COc1ccc(I)c2c1C[C@H](O)[C@H](O)C2 (relative stereo) | inhibition [7]: Active; Activity [8]: Toxic |
| 80 µg/mL (≈ 208 µM) | 310 | CC(C)N(Cc1ccccc1)CC(O)COc1cccc2c1C[C@H](O)[C@H](O)C2 (stereo not given in full) | – |
| – | 3.1 | CC(C)(Cc1ccccc1)NCC(O)COc1cccc2c1C[C@H](O)[C@H](O)C2 (stereo not given in full) | IC50 [4]: 0.045 µg/mL (≈ 0.117 µM) |

Source: ChEMBL document CHEMBL3243942, “Nondepressant beta-adrenergic blocking agents. 1. Substituted 3-amino-1-(5,6,7,8-tetrahydro-1-naphthoxy)-2-propanols” (J Med Chem, 1978)
